pIC50: −log10 of the molar value. Where “and” joins values, the source holds several entries; their conditions need not be identical. Equal values may be shown once.
Tests used:
[1] = test system: endometrioid ovarian cancer
[2] = test system: chemotherapy-resistant SKOv3 cells; assay: Cellular recovery assay with cisplatin; type: cell-based; conditions: for cellular recovery: SKOv3, 9 days after treatment, single agent
CaoV3 cells = assay: Minimal residual disease model, CaoV3 subcutaneous; conditions: 3 weeks treatment, 6 months follow-up
[3] = test system: FACS-sorted ALDH+ SKOv3 cells; assay: Intraperitoneal ALDH+ SKOv3 survival study
PEO1 cells = assay: ALDEFLUOR assay of ALDH activity in live PEO1 cells; type: cell-based
[4] = test system: CD133+ cells (A2780, OVSAHO, OvCAR5); assay: Depletion of CD133+ CSC by FACS 72 h after treatment; type: cell-based
platinum-resistant PDX = assay: Chemotherapy-resistant patient-derived xenograft; type: in vivo, mice; conditions: 673A added to carboplatin or cisplatin
splenocytes = assay: ALDEFLUOR activity in splenocytes of treated animals; type: in vivo, mice; conditions: animals being treated with 673A
[5] = test system: other ALDH family members; assay: ALDH enzymatic activity, in vitro inhibition; type: biochemical; conditions: in vitro enzymatic assay
[6] = test system: FACS-sorted CD133+ (A2780) cells; assay: Annexin-V/PI FACS analysis of apoptosis; type: cell-based; conditions: 12.5 μM
[7] = test system: human mesenchymal stem cells; assay: Toxicity to normal cells; type: cell-based
ALDH1A1 = ALDH1A1 (Homo sapiens, UniProt P00352); assay: ALDH enzymatic activity, in vitro inhibition; type: biochemical; conditions: IC50 ALDH1A1, in vitro enzymatic assay, propionaldehyde/NAD+
ALDH1A1, sequence (P00352 whole entry): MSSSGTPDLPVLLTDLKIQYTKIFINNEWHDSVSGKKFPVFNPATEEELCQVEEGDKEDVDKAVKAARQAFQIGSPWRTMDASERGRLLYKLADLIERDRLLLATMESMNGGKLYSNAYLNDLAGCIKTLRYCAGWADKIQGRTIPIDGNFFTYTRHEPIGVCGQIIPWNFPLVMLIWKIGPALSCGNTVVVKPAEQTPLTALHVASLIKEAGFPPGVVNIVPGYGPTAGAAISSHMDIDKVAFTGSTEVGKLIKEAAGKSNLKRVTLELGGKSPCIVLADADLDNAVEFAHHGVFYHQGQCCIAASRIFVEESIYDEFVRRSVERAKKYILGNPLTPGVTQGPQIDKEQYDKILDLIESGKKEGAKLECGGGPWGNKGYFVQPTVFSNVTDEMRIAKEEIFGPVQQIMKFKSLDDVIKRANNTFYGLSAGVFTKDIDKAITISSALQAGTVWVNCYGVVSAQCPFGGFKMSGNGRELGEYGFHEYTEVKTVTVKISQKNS

ALDH1A2 = ALDH1A2 (Homo sapiens, UniProt O94788); assay: ALDH enzymatic activity, in vitro inhibition; type: biochemical; conditions: IC50 ALDH1A2, in vitro enzymatic assay, propionaldehyde/NAD+
ALDH1A2, sequence (O94788 whole entry): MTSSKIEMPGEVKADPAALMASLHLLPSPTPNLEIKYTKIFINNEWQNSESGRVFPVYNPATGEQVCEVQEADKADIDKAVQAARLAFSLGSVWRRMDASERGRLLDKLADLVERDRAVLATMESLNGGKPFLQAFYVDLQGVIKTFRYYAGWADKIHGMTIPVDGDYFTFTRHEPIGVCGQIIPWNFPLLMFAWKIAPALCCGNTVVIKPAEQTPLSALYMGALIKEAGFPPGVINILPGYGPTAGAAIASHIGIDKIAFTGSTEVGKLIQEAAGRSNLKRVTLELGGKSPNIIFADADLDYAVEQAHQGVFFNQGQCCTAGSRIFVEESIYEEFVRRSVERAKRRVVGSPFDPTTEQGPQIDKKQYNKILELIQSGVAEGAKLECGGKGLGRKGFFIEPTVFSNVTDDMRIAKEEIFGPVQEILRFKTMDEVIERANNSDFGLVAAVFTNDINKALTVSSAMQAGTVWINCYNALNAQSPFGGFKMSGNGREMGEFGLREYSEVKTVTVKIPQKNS

ALDH2 = ALDH2 (Homo sapiens, UniProt P05091); assay: biochemical
ALDH2, sequence (P05091 18-517): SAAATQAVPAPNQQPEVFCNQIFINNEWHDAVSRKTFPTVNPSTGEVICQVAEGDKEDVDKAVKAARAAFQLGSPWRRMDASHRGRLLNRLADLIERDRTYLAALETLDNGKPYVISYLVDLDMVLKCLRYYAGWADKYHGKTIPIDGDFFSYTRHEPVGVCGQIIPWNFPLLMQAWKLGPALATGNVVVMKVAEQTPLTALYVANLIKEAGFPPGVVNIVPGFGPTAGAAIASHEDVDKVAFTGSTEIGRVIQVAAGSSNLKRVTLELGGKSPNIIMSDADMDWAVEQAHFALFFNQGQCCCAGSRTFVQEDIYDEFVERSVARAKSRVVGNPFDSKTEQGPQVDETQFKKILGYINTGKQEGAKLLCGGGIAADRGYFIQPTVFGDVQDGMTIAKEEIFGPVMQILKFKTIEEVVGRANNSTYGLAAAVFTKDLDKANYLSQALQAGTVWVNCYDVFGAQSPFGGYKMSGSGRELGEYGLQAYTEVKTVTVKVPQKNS

SKOv3 cells = type: in vivo, mice
CD133+ cells = assay: Intracellular calcium level; type: cell-based
[8] = test system: non-malignant MCF10A cells; assay: Toxicity to normal cells; type: cell-based
[9] = Hematologic, renal, and liver function tests; type: in vivo; conditions: liver function tests, 673A added to cisplatin
[10] = test system: bulk cells, multiple cell lines; assay: Bulk cell viability in multiple cell lines; type: cell-based
[11] = test system: Ovsaho, HEY-1, and A2780 cell-line xenografts; assay: Cell-line xenografts, single agent
[12] = biological target: ALDH1A1 Cys303 in SKOv3 tumors (Homo sapiens, UniProt P00352); assay: isoTOP-ABPP of ALDH1A in tumors in vivo; set-up: species or system mice; conditions: 673A-treated tumors
ALDH1A1 Cys303 in SKOv3 tumors, sequence (P00352 whole entry): as the sequence (P00352 whole entry) above

[13] = test system: primary cells from HGSC patients; assay: Seahorse mitochondrial flux analysis; type: cell-based, human; conditions: 12.5 μM
[14] = test system: OVCAR5-ALDH1A3-knockout (KO) cells; assay: 673 dose-response in CRISPR knockout cells; type: cell-based
ALDH1A3 = ALDH1A3 (Homo sapiens, UniProt P47895); assay: ALDH enzymatic activity, in vitro inhibition; type: biochemical; conditions: IC50 ALDH1A3, in vitro enzymatic assay, propionaldehyde/NAD+
ALDH1A3, sequence (P47895 whole entry): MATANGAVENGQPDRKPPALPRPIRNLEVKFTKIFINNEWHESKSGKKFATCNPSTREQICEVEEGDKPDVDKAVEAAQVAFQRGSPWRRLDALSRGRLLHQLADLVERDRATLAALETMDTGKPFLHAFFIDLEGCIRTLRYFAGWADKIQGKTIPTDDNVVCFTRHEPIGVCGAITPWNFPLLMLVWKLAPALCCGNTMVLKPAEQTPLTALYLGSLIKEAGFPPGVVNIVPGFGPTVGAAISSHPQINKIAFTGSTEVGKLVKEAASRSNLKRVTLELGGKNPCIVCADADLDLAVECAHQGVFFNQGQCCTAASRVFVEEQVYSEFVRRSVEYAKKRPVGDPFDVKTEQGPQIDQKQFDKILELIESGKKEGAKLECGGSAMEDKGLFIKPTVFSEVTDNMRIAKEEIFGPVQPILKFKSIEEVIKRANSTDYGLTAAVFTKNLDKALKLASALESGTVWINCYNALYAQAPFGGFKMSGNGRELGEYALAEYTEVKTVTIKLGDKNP

[15] = test system: primary patient cells (HGS); assay: Tumor sphere growth assay; type: cell-based, human; conditions: single 12.5 μM dose
[16] = test system: FACS-isolated ALDH+CD133+ A2780 cells; assay: Single-cell microfluidic culture cell death; type: cell-based; conditions: microfluidic chips, 72 h

## N.N.O=C([O-])C1(C(=O)[O-])CCC1.[Pt+2] [carboplatin, reference compound]
[1]; carboplatin alone, 25 mg/kg weekly
  mice tumor free after therapy: 16%

## N.N.[Cl][Pt][Cl] [cisplatin, reference compound]
[2]
  cellular recovery: 100%
CaoV3 cells; single agent
  mice that developed tumors: Ninety
[3]; cisplatin only
  mice that died: 100%

## CCN(CC)c1ccc(C=O)cc1 [DEAB, N,N-diethylaminobenzaldehyde, reference compound]
PEO1 cells; PEO1 cells, 6 h, equimolar doses (25 μM)
  inhibition of ALDEFLUOR activity: 40%
[4]
  depletion of CD133+ CSCs / toxicity: preferential depletion of CD133^+ cells

## O=Cc1ccc(N2Cc3ccccc3C2)cc1 [673A, 4-(1,3-dihydro-2H-isoindol-2-yl)benzaldehyde]
platinum-resistant PDX
  reduction of final tumor weight: more than 2 fold
splenocytes
  decrease of ALDEFLUOR activity in splenocytes: 3 fold
[5]
  inhibition of other ALDH family members tested: minimal or no inhibition
[6]
  induction of annexin-V: no significant early or late induction of annexin-V
[7]
  toxicity to human mesenchymal stem cells: little or no toxicity
[2]; SKOv3, 9 days after combined treatment of cisplatin and 673A
  reduction in cell number: 30 fold
[2]
  cellular recovery: 100%
ALDH1A1
  pIC50: 6.61 and > 6.46
CaoV3 cells; cisplatin and 673A
  mice that developed tumors: 40%
CaoV3 cells; single agent
  mice that developed tumors: 50%
ALDH1A2
  pIC50: 6.64 and > 6.46
ALDH2
  pIC50: 4.85 and ~4.82
PEO1 cells; Homo sapiens, PEO1, 6 h, read-out: inhibition of ALDEFLUOR activity
  inhibition at 25 µM: 98%
PEO1 cells; PEO1 cells, persisted after 6 h
  time to inhibition of PEO1 ALDEFLUOR activity: ≤ 1 h
[3]; cisplatin and 673A
  mice disease free at 6 months: 62%
SKOv3 cells; 673A combined with cisplatin therapy
  tumor initiation capacity: eliminated tumor initiation capacity
SKOv3 cells; SKOv3 treated in vitro 12.5 μM, 48 h, 5,000 live cells injected
  reduction in tumor growth versus no treatment or cisplatin therapy: 4–5 fold
SKOv3 cells; limiting dilution assay, 673A alone
  reduction of tumor initiation: ~ 50%
CD133+ cells; 16 h after treatment
  increase in intracellular Ca: 1.5 fold
CD133+ cells; 24 h after treatment
  increase in intracellular Ca: 6 fold
[8]
  toxicity to non-malignant MCF10A cells: little or no toxicity
[9]
  toxicity with addition to cisplatin: no additional toxicity
[10]
  TD50 bulk cell viability: 40 to 80 µM
[11]; 20 mg/kg daily for 21 days
  reduction of tumor burden: 40%–60%
[11]; in vivo, single agent
  reduction of tumor growth as a single agent: > 50%
[12]
  engagement of ALDH1A1 catalytic residue: clear protection of the catalytic residue Cys303 in ALDH1A1
[13]
  OXPHOS capacity: decreased OXPHOS capacity
[1]; carboplatin weekly and 673A 20 mg/kg daily for 7 weeks
  mice tumor free at conclusion of experiment: 27%
[14]
  increase in TD50 versus control cells: ~ 10 ×
ALDH1A3
  pIC50: 6.46 and > 6.46
[15]
  average reduction in tumor sphere formation: 19 fold
[4]
  depletion of CD133+ CSCs / toxicity: highly effective at preferentially depleting CD133^+ CSC
[16]
  treated cells that died: > 90%

## CCN(CC)C(=S)SSC(=S)N(CC)CC [DSF, disulfiram, reference compound]
SKOv3 cells; SKOv3 treated in vitro, 5,000 live cells injected
  effect on cancer growth: no effect on cancer growth

## O=c1c(-c2ccc(O)cc2)coc2cc(O[C@@H]3O[C@H](CO)[C@@H](O)[C@H](O)[C@H]3O)ccc12 [daidzin, reference compound]
[2]; SKOv3, added to cisplatin
  therapeutic benefit of addition to cisplatin: No therapeutic benefit
[4]
  depletion of CD133+ CSCs / toxicity: no significant toxicity
